In the supplement of paper PMC10307832:

Assays:
Assay in all cases: relative viability (nuclei count vs DMSO), 5 days (fraction); higher = more cells survive
[1] = compound: C1=CC2=C(C=C(C(=C2N=C1)O)N=NC3=CC4=C(C=C3)C=C(C=C4)S(=O)(=O)O)S(=O)(=O)O + CC1(C)CCC(c2ccc(Cl)cc2)=C(CN2CCN(c3ccc(C(=O)NS(=O)(=O)c4ccc(N[C@H](CCN5CCOCC5)CSc5ccccc5)c(S(=O)(=O)C(F)(F)F)c4)cc3)CC2)C1 [Navitoclax] (partner 0.5 µM)
In short: (§1)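 Lung cancer cell lines in 1536-well plates were dosed by pin tool the day after seeding, either with one drug alone or with a fixed anchor-drug dose plus five library-drug doses (not always all listed) in √10 steps. After 5 days, cells were fixed and their nuclei stained in one step (final 0.05% Triton X-100, 1% formaldehyde, 1 ug/ml Hoechst), then counted on 4× images. Relative viability is the nuclei count in treated wells divided by that in vehicle wells. Values are medians of duplicate plates.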

[2] = compound: C1=CC2=C(C=C(C(=C2N=C1)O)N=NC3=CC4=C(C=C3)C=C(C=C4)S(=O)(=O)O)S(=O)(=O)O + CC(=O)c1c(C)c2cnc(Nc3ccc(N4CCNCC4)cn3)nc2n(C2CCCC2)c1=O [Palbociclib] (partner 0.5 µM)
In short: as §1

[3] = compound: C1=CC2=C(C=C(C(=C2N=C1)O)N=NC3=CC4=C(C=C3)C=C(C=C4)S(=O)(=O)O)S(=O)(=O)O + C[C@]1(O)C[C@@H](c2nc(-c3ccc4ccc(-c5ccccc5)nc4c3)c3c(N)nccn32)C1 [Linsitinib] (partner 1 µM)
In short: as §1

[4] = compound: C1=CC2=C(C=C(C(=C2N=C1)O)N=NC3=CC4=C(C=C3)C=C(C=C4)S(=O)(=O)O)S(=O)(=O)O + O=C(c1cc(Cc2n[nH]c(=O)c3ccccc23)ccc1F)N1CCN(C(=O)C2CC2)CC1 [Olaparib] (partner 8 µM)
In short: as §1

In the case of UMC-11, the relative viability ([1]; first compound 0.08 µM) is reported as 0.261, the relative viability ([1]; first compound 0.253 µM) is reported as 0.334 and the relative viability ([1]; first compound 0.8 µM) is reported as 0.314. For the same cell line, the relative viability ([1]; first compound 2.53 µM) was 0.293, the relative viability ([1]; first compound 8 µM) was 0.333 and the relative viability ([2]; first compound 0.08 µM) was 0.325. It also gave a relative viability ([2]; first compound 0.253 µM) of 0.329, a relative viability ([2]; first compound 0.8 µM) of 0.326 and a relative viability ([2]; first compound 2.53 µM) of 0.339. The relative viability ([2]; first compound 8 µM) was 0.324, the relative viability ([3]; first compound 0.08 µM) was 1.11 and the relative viability ([3]; first compound 0.253 µM) was 0.943. It also gave a relative viability ([3]; first compound 0.8 µM) of 1.03, a relative viability ([3]; first compound 2.53 µM) of 1.02 and a relative viability ([3]; first compound 8 µM) of 0.944. For the same cell line, the relative viability ([4]; first compound 0.08 µM) was 0.36, the relative viability ([4]; first compound 0.253 µM) was 0.381 and the relative viability ([4]; first compound 0.8 µM) was 0.34. It also gave a relative viability ([4]; first compound 2.53 µM) of 0.376 and a relative viability ([4]; first compound 8 µM) of 0.317.
